Laboratory results taken from PubChem BioAssay (NCI).
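Where inhibition never reached the appropriate level, the endpoint shown equals the highest concentration tested. Otherwise, values were interpolated linearly from a five-concentration, 48-hour dose response in 96-well plates. Definition used: TGI = concentration required for complete inhibition of growth.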

Columns and labels:
Assay in all cases: NCI-60 cell line screen, 48 h
SF-268 CNS = tested on: SF-268 CNS
MDA-N = tested on: MDA-N
SK-MEL-5 melanoma = tested on: SK-MEL-5 melanoma
LOX IMVI melanoma = tested on: LOX IMVI melanoma
NCI-H23 lung = tested on: NCI-H23 lung
SF-295 CNS = tested on: SF-295 CNS
HOP-92 NSCLC = tested on: HOP-92 NSCLC
M14 melanoma = tested on: M14 melanoma
SN12C renal = tested on: SN12C renal
CCRF-CEM leukemia = tested on: CCRF-CEM leukemia
UACC-62 melanoma = tested on: UACC-62 melanoma
HT29 colon = tested on: HT29 colon
IGROV1 ovarian = tested on: IGROV1 ovarian
CAKI-1 renal = tested on: CAKI-1 renal
OVCAR-5 ovarian = tested on: OVCAR-5 ovarian
NCI-H226 lung = tested on: NCI-H226 lung
SNB-75 CNS = tested on: SNB-75 CNS
SK-MEL-28 melanoma = tested on: SK-MEL-28 melanoma
MOLT-4 leukemia = tested on: MOLT-4 leukemia
A498 renal = tested on: A498 renal

| SMILES | TGI (SF-268 CNS) [µM] | TGI (MDA-N) [µM] | TGI (SK-MEL-5 melanoma) [µM] | TGI (LOX IMVI melanoma) [µM] | TGI (NCI-H23 lung) [µM] | TGI (SF-295 CNS) [µM] | TGI (HOP-92 NSCLC) [µM] | TGI (M14 melanoma) [µM] | TGI (SN12C renal) [µM] | TGI (CCRF-CEM leukemia) [µM] | TGI (UACC-62 melanoma) [µM] | TGI (HT29 colon) [µM] | TGI (IGROV1 ovarian) [µM] | TGI (CAKI-1 renal) [µM] | TGI (OVCAR-5 ovarian) [µM] | TGI (NCI-H226 lung) [µM] | TGI (SNB-75 CNS) [µM] | TGI (SK-MEL-28 melanoma) [µM] | TGI (MOLT-4 leukemia) [µM] | TGI (A498 renal) [µM] |
| --- | --- | --- | --- | --- | --- | --- | --- | --- | --- | --- | --- | --- | --- | --- | --- | --- | --- | --- | --- | --- |
| CC(C)(C)c1cc(OCc2nnc3sc(=S)[nH]n23)c(Cl)cc1OCc1nnc2sc(=S)[nH]n12 | > 100 | 40.6 | 29.5 | 34.2 | 95.5 | > 100 | 53.3 | 75.7 | > 100 | 37.3 | 32.6 | > 100 | 66.4 | 80.5 | > 100 | > 100 | 92 | 58.4 | > 100 | 88.7 |
| CC1Cc2cc(O)c(O)cc2-c2cc(O)c(O)cc2CC1C (stereo unspecified) | > 100 | 11.7 | 17.4 | 23.1 | 38.6 | 20.8 | 46.7 | 29.7 | 49 | > 100 | 19.3 | 63.9 | 47 | 48.3 | 45.6 | 67.8 | > 100 | 43.6 | 32.3 | 56.8 |
| O=C1N[C@@H]2c3c(Br)sc(Br)c3C(=O)[C@@H]2O1 | 28.7 | 6.44 | 18.4 | 3.54 | 7.35 | 32.5 | 11.8 | 3.81 | 8.1 | 3.94 | 27.5 | 3.59 | 11.6 | 2.37 | 27 | 28.8 | 16.7 | 6.64 | 4.61 | 30.4 |
| CC1(C)C2CC3C4CC5(Nc6ccccc6C5N41)[C@]3(C)CC2=O (stereo partly specified) | > 50 | > 50 | > 50 | > 50 | > 50 | > 50 | > 50 |  | > 50 | > 50 | > 50 | > 50 | > 50 | > 50 | > 50 | > 50 | > 50 | > 50 | > 50 | > 50 |
| O=C1c2ccccc2CC12Cc1ccccc1C2 | > 100 | > 100 | 56.1 | > 100 | > 100 | > 100 | 91.9 | > 100 | > 100 | > 100 | > 100 | 70.5 | > 100 | > 100 | > 100 | > 100 | 90.3 | > 100 | > 100 | > 100 |
| CCCCCCOc1ccc(C(=O)N(C)O)cc1 | 55.7 | > 100 | 62.5 | > 100 | 65.6 | > 62.4 | > 100 | 39.3 | > 93.9 | 23.5 | 60.9 | 27.5 | > 100 | > 91.2 | > 100 | 59.5 | > 94.4 | > 100 | 50.4 | > 100 |
| CN1C=Cc2nccc3cc4c(c1c23)OCO4 | 11.3 | 8.62 | 4.84 | > 100 | 10.3 | 10.1 | > 68.5 | 11.7 | 30.2 | > 100 | 5.36 | 27.5 | > 39.2 | 5.77 | 66.3 | 43.5 | 5.3 | 39.2 | > 93 | 20.5 |
| COC(=O)c1ccccc1/C=C1\Cc2c(C)cc(C)cc2C1=O | > 100 | > 100 | > 100 | > 100 |  | > 100 | > 100 | > 100 | > 100 | > 100 | > 100 | > 100 | > 100 | > 100 |  | > 100 | > 100 | > 100 | > 100 | > 100 |
| O=C(NCCN1CCCCC1)c1ccc(I)cc1 | > 100 | > 100 | > 100 | > 100 | > 100 | > 100 | > 100 | > 100 | > 100 | > 100 |  | > 100 | > 100 | > 100 | > 100 | > 100 | > 100 | > 100 | > 100 | 69.3 |
| N#Cc1c(Cl)nc2ccccc2c1N=[N+]=[N-] | 11.2 | 26.8 | 27.7 | 3.47 | 6.3 | 22.4 | 3.32 | 6.48 | 10.7 | 4.24 | 7.14 | 3.26 | 3.9 | 3.12 | 15.2 | 33.1 | 21.9 | 9.11 | 3.17 | 36.2 |
| COC(=O)C1=CN(C2CCCCC2)C2(c3ccccc3)c3ccccc3C(=O)OC(=O)C12 (stereo unspecified) | > 100 | > 100 | > 100 | > 100 | > 100 | > 100 | > 100 | > 100 | > 100 | > 100 |  | > 100 | > 100 | > 100 | > 100 | > 100 | > 100 | > 100 | > 100 | > 100 |
| O=C(NC(Nc1ccc(F)cc1)(C(F)(F)F)C(F)(F)F)C(C(F)(F)F)C(F)(F)F | > 100 | > 100 | > 100 | > 100 | > 100 | > 100 | > 100 | > 100 | > 100 | 19.7 | > 100 | > 100 | > 51.5 | > 100 | > 100 | > 100 | > 100 | > 100 | 36.2 | > 100 |
| CC(C)(C)OC(=O)c1ccc(NCC2=CC(=O)C=CC2=O)cc1 | 24.3 | 25.3 | 29 | 22.6 | 22.2 | 50.5 | 4.4 | 17.6 | 23.8 | 5.35 | 26 | 35 | 23.9 | 3.39 | 32.5 | 40.5 | 24.3 | 29.2 | 4.38 | 30.9 |
| COc1ccc(/C=C2/NC(=S)N=C2Cl)cc1 | > 100 | > 100 | > 100 | > 100 | > 100 | > 100 | > 100 | > 100 | > 100 | > 100 |  | > 100 | > 100 | > 100 | 37.9 | > 100 | > 100 | > 100 | > 100 | > 100 |
| O=C1NC(=O)/C(=C/c2ccc(S(=O)(=O)N/N=C\C(O)C(O)C(O)C(O)CO)cc2)N1 (stereo unspecified) | > 100 | > 100 | > 100 | > 100 | > 100 | > 100 | > 100 | > 100 | > 100 | > 100 | > 100 | > 100 | > 100 | > 100 | > 100 | > 100 | > 100 | > 100 | > 100 | > 100 |
| CCN(CC)/[N+]([O-])=N/OCOC(C)=O | > 100 | > 100 | > 100 | > 100 | > 100 | > 100 | > 100 | > 100 | > 100 | > 100 | > 100 | > 100 | > 100 | > 100 | > 100 | > 100 | > 100 | > 100 | > 100 | > 100 |
| N#Cc1c(O)c(N=Nc2ccc(Cl)cc2)c(=O)n2c1[nH]c1ccccc12 | > 100 | > 100 | > 100 | > 100 | > 100 | > 100 | 76.9 | > 100 | > 100 | > 100 | > 100 | > 100 | > 100 | > 100 | > 100 | > 100 | > 100 | > 100 | > 100 | > 100 |
| CC1=CC(C)C(C)N(CCNS(=O)(=O)c2ccc(C)cc2)c2ccccc21 (stereo unspecified) | 19.6 | 18.8 |  | 17 | 26.9 | 19.5 | 36.1 | 17.5 | 17.1 | 25.6 | 17.2 | 17.4 | 23.4 | > 31.6 | 31.1 | 17.8 | 23.4 | 17.9 | 23.5 | 19.2 |
| Cc1sc(C)c2c1C(=O)CC2N (stereo unspecified) | > 57.3 | > 57.4 | > 100 | 32.2 | > 96.2 | > 100 | 40.7 | 27.6 | > 58.6 | 6.68 | > 100 | > 59.3 | > 69 | 28.9 | > 100 | > 54.9 | > 83.1 | > 62.5 | 23.7 | > 100 |
| CN(C)c1ccc(-c2ccc(N(C)C)c3n[se]nc23)c2n[se]nc12 | > 100 | > 100 | > 100 | > 100 | > 100 | > 100 | > 100 |  | > 100 | > 100 | > 100 | > 100 | > 100 | > 100 | > 100 | > 100 | > 100 | > 100 | > 100 | > 100 |
| CC(C)C(C/C=C1/CC(CO)(COC(=O)c2ccccc2)OC1=O)C(C)C (stereo unspecified) | 31.8 | 31.2 | 21.3 | 69.6 | 34.7 | 25.7 | 35.8 | 32.2 | 29 | 43.5 | 67.1 | 36.4 | 38.2 | 27.8 | 31.2 | 32.4 | 20.3 | 27.8 | 47 | 39.7 |
| CC(=O)c1cccc(NC(=O)C(=O)C(c2cnc3ccc([N+](=O)[O-])cc3n2)[N+](=O)[O-])c1 (stereo unspecified) | > 100 | > 100 |  | > 100 | > 100 | > 100 | > 100 | > 100 | > 100 | > 100 | > 100 | > 100 | > 100 | > 100 | > 100 | > 100 | > 100 | > 100 | > 100 | > 100 |
| CO[C@@H]1C[C@H]2N3CC[C@@]2(c2cc4c(cc2C3)OCO4)[C@H]2O[C@@H]12 | > 100 | > 100 | 0.303 | > 100 | > 100 | > 100 | > 100 | > 100 | > 100 | > 100 | > 100 | > 100 | > 100 | > 100 | > 100 | 4.59 | > 100 | > 100 | > 100 | > 100 |
| COc1ccc2c(c1)CCCN2S(=O)(=O)c1ccccc1[N+](=O)[O-] | > 96.8 | 26.7 | 62.2 | > 88.6 | > 100 | > 100 | 97.8 | > 92.8 | > 100 | 80.9 | > 97.5 | 77.2 | > 100 | > 100 | > 100 | > 96.2 | > 87 | > 100 | 67.3 | > 78 |
